Data on one substance can be found in US20050004029A1, “Methods and compositions for treating vascular leak using hepatocyte growth factor” (priority 2001, published 2005).

“Also recorded” adds a separate entry of the source.

One experiment deals with PI-3′ kinase. In words: Akt phosphorylation by western immunoblotting (PI-3′ kinase activity). It counts as cell-based. The method, then: Endothelial cell monolayers grown to confluence in 12-well plates and challenged with HGF were lysed with 100 μl of 2×SDS sample buffer, and cell lysates were transferred into microcentrifuge tubes and boiled for 5 min. After a brief spin, proteins from 10 μl cell lysates were separated on 12% SDS-PAGE and transferred to nitrocellulose (Schleicher & Schuell, Keene, N.H.) (30V, 18 h). After blocking with PBST (PBS with 0.1% Tween 20) containing 5% non-fat milk for 1 hr, nitrocellulose blots were reacted with primary antibodies diluted in PBST containing 5% BSA for 1 hr, washed with PBST (3×10 min), incubated with peroxidase-conjugated secondary antibodies (goat anti-rabbit IgG, 1:10,000 dilution, Sigma; or goat anti-mouse IgG, 1:10,000 dilution, Bio-Rad Labs, Richmond, Calif.) diluted in PBST with 5% non-fat milk for 1 hr and again washed with PBST (3×10 min). Finally, immunoreactive proteins were detected using ECL. The relative intensities of the protein bands were quantified by scanning densitometry.
To identify key signaling mediators involved in HGF-induced barrier protection, the role of PI-3′-kinase in HGF-stimulated barrier improvement was examined by measuring HGF-dependent phosphorylation of the serine/threonine kinase, Akt, a well-accepted method of defining PI-3′ kinase activity. Cell homogenates were analyzed by western immunoblotting with anti-phospho-Akt[…] antibody. When endothelial monolayers were incubated with HGF (20 ng/ml) for increasing amounts of time (1, 2, 5, 10, 15, 20, 30, 60, or 120 minutes), AKT is rapidly phosphorylated beginning at 2 min with maximal effect plateauing by 5-30 min. When the cells are incubated for 15 minutes with increasing concentrations of HGF (0.5, 1, 2, 5, 10, 20, 50 or 100 ng/ml), activation was […] in response to concentrations as low as 5 ng/ml. […]

Experiment [1] deals with human alveolar epithelial cells (A549). Nature of the experiment: Electrical resistance of A549 alveolar epithelial cells on gold microelectrodes. It is filed as cell-based. The conditions noted are these: HGF 100 ng/mL; sphingosine 1-phosphate 1 μM. The method, then: FIGS. 1A-1D depict HGF-mediated increases in human transendothelial electrical resistance (TER). FIG. 1A: Human pulmonary artery endothelial cells were grown to confluence on gelatinized gold microelectrodes. Two hours prior to TER measurement, growth medium was replaced with serum-free M199. Serial-diluted HGF was added to cells at indicated concentrations and TER monitored for 2.5 hr. […] The result shown is a representative TER tracing of three independent experiments. FIG. 1B: Similar to FIG. 1A, human alveolar epithelial cells (A549) were grown on gold microelectrodes and challenged with vehicle, HGF, (100 ng/mL) or sphingosine 1-phosphate (1 μM). […]
Electrical resistance of EC monolayers was measured using electrical cell impedance sensor system (Applied Biophysics Inc., Troy, N.Y.) as described in Garcia, J. G. N. et al. (2000) J. Appl. […] Cells grown on gold microelectrodes (10^−3 cm^2) in polycarbonate wells act as insulating particles, and the resistance across the monolayers (transendothelial electrical resistance, or TER) is measured in real time. […] The in-phase and out-of-phase voltages between the electrodes were monitored in real time with the lock-in amplifier and converted to scalar measurements of transendothelial impedance, of which resistance was the primary focus. […]

For the substance “HGF: heparin-binding glycoprotein, multifunctional cytokine, ligand of c-Met; purchased from R&D Systems”, in the experiment on PI-3′ kinase (HGF 20 ng/ml), the “onset of Akt phosphorylation” value is 2 min and the “time of maximal Akt phosphorylation (plateau)” value was 5 to 30 min. In addition, the “lowest concentration giving Akt activation” value in the experiment on PI-3′ kinase (HGF 0.5-100 ng/ml, 15 minutes) came out at 5 ng/mL. Besides, the “effect on electrical resistance of epithelial cells” value in experiment [1] is “did not alter TER values; also recorded: completely without effect”.
